Source: patent US20090214637A1, “Novel Gene Therapy Approach For Treating The Metabolic Disorder Obesity” (NEUROLOGIX, INC., priority 2007, published 2009)

Assays:
[1] = 2-DG induced food intake versus saline; format: in vivo, mice; conditions: over 4 h, compared to saline
Description: FIG. 8A-B depicts the effect of Hip2 silencing on the response to 2-deoxy-D-glucose (2-DG) induced hypoglycemia.
Silencing of Hip2 was achieved by AAV vectors encoding the Hip2 small hairpin RNA (Hip2 shRNA) delivered into the VMN region of the brain via injection. AAV vectors encoding the luciferase shRNA were used as controls. […] Furthermore, reduction of Hip2 levels also had no effect on the ability of the VMN neurons to sense glucose levels in blood.

primary VMN neurons = assay: Number of glucose sensing neurons after estradiol, calcium imaging; format: cell-based; conditions: 1 nM, 24 h, primary VMN neurons from female rats
Experimental: Overexpression of ERα in a murine hypothalamic cell line […] (FIG. 9A-C) has led to upregulation of glucose sensing genes. In order to determine whether these effects are also dependent on estrogen, primary VMN neurons from female rats were treated 17-β-estradiol at physiological levels (1 nM) and the number of glucose sensing neurons were measured in 24 h using calcium imaging.

dissociated VMN neurons = assay: Depolarization of dissociated VMN neurons by 17β-estradiol; format: cell-based, mice; conditions: 1 nM or 10 nM

Row | SMILES | food intake [1] | number of glucose-excited neurons (primary VMN neurons) | depolarization of cells with nuclear ERα staining (dissociated VMN neurons) | depolarization of membrane ERα-immunoreactive cells (dissociated VMN neurons; dissociated VMN neurons from postnatal female mice)
1 | O=CC[C@@H](O)[C@H](O)[C@H](O)CO [2-DG, 2-deoxy-D-glucose] | significantly increased food intake |  |  | 
2 | C[C@]12CC[C@@H]3c4ccc(O)cc4CC[C@H]3[C@@H]1CC[C@@H]2O [17β-estradiol] |  | increased the number of glucose-excited neurons | did not depolarize | majority of membrane ERα-immunoreactive cells depolarized
